In patent US20240199624A1, “COMPOUNDS, COMPOSITIONS, AND METHODS” (CHDI Foundation, Inc., priority 2022, published 2024):

What was measured:
human MutSbeta [1] = target: T1, human MutSbeta (Homo sapiens, UniProt P20585+P43246); test: P33 SPA; type: biochemical; settings: ATP added to compounds first, then enzyme with DNA; 2 μM ATP, 7 nM enzyme, 60 min 37° C.
T1 construct: Msh2(1-934), Gene ID NP_000242.1; Msh3(1-1137), Gene ID J04810.1
Protocol: (§1) P33 SPA: Enzyme human MutSbeta (Msh2(1-934), Gene ID NP_000242.1, Msh3(1-1137), Gene ID J04810.1) and 22 bp biotin-labeled DNA containing a GT-mismatch (purchased from Curia Global, TOP 5′-[…]-3′; BOT 3′-AGTAGCTAGGC - - - CGAAGTCTACC-5′-Biotin) were pre-incubated at equimolar concentration for 15 min at room temperature (“RT”) in assay buffer (25 mM HEPES pH=7.5, 150 mM KCl, 2 mM MgCl2, 2 mM GSH, 0.01% Tween-20). ATP (10 μL, 2× final concentration of γ-[^33P]-ATP (final 0.1 nM; Hartmann Analytic, FF-301) and cold ATP (final 2 μM)) was added to compounds (400 nL spotted as concentration response in 100% DMSO into wells of an OptiPlate) and pre-incubated for 30 min at RT. Then, enzyme with DNA was added (10 μL, 2× final concentration of 7 nM) and incubated for 60 min at 37° C. in a total volume of 20 μL per well. Decay of [^33P] with a half-life of 25.4 days was corrected by increasing the concentration of the labelled nucleotide with the appropriate factor; all steps with radioactive ATP were conducted behind appropriate shielding. Then, 20 μL of a 1:2 mix of ammonium molybdate (20 mg/mL Ammonium molybdate in 2.4 M HCl) and SPA beads (ProteinA SPA beads from Perkin Elmer Cat #RPNQ0019 at 7.5 mg/mL+1% azide) was added per well and incubated at RT for 2 min. Then, 40 μL of 7 M CsCl and 0.1 M citrate was added per well and incubated for 20 h at RT before measuring on the MicroBeta (top read mode, 1 min per well). For full plate processing, all reagents were transferred with a pipettor (Selma, CyBio) apart from the final reagent (CsCl+citrate) which was added with a dispenser (MultiFlo, BioTek). Data analysis during assay development was done with Prism GraphPad.

human MutSbeta [2] = target: T1, human MutSbeta; test: P33 SPA 1.1; type: biochemical
Protocol: as §1
P33 SPA 11: For the SPA 1.1 assay, the addition of reagents was reversed, i.e. enzyme was first added to the compounds and pre-incubated followed by ATP addition; thus, the assay was aligned with ADP Glo 1.1 reagent addition order. The assay was repeated under similar conditions, and the results are shown below in Table 5B. It is contemplated the solubility of the compounds and/or varying test occasions may account for variability of assay results.

human MutSbeta [3] = target: T1, human MutSbeta; test: ADP Glo assay 2.1; type: biochemical; settings: 10 μM ATP, 7 nM enzyme; buffer with 5 mM GSH, 0.2% Ovalbumin
Protocol: (§2) ADP Glo assay 2.1: Enzyme human MutSbeta (Msh2(1-934), Gene ID NP_000242.1, Msh3(1-1137), Gene ID J04810.1) with 22 bp biotin-labeled DNA containing a GT-mismatch (purchased from Curia Global, TOP 5′-[…]-3′; BOT 3′-AGTAGCTAGGC - - - CGAAGTCTACC-5′-Biotin) was pre-incubated in assay buffer (25 mM HEPES pH=7.5, 150 mM KCl, 5 mM MgCl2, 5 mM GSH, 0.1% Pluronic F-127, 0.2% Ovalbumin) to allow formation of the enzyme-DNA complex. Plates with spotted compounds in serial dilutions in DMSO (80 nL) were filled with ATP (2 μL, 10 μM final concentration) followed by an incubation of 30 min at RT. Then, enzyme was added (2 μL, 7 nM final concentration) and the reaction was allowed to proceed for 60 min at 37° C. After the ATPase reaction, the commercially available “ADP-Glo Reagent” was added (incubate 40 min at RT) to deplete remaining ATP via the activity of […]. Subsequently, the commercially available “Kinase Detection Reagent” converted ADP to ATP via the activity of PEP and Pyruvate kinase. The ATP was then converted into light by Ultra-Glo Luciferase. The obtained luminescence was proportional to the ADP concentration generated during the initial ATPase reaction. The luminescence signal was measured with an Envision reader, raw data were analyzed towards controls (full reaction=0% inhibition; no reaction in absence of enzyme=100% inhibition) and IC50 curves were analyzed with the inhouse software Aplus.

human MutSbeta [4] = target: T1, human MutSbeta; test: ADP Glo assay 1.1; type: biochemical; settings: SPA buffer, no Ovalbumin; enzyme added to compounds before ATP; read-out: ADP Gol 1.1 assay IC50
Protocol: as §2
ADP Glo assay 1.1: The ADP Glo 2.1 assay was adapted to enable assessment of a more direct interaction of the compound with the enzyme: (1) the SPA buffer was applied (25 mM HEPES pH=7.5, 150 mM KCl, 2 mM MgCl2, 2 mM GSH, 0.01% Tween-20) which contained no decoy Ovalbumin protein. (2) The order of reagent addition was changed, and enzyme was now added directly to the spotted compounds before addition of ATP.

human MutSα = target: T2, human MutSα (Homo sapiens, UniProt P43246+P52701); test: ADP Glo assay with MutSα (2.1); type: biochemical; settings: 15 nM MutSα/DNA, 30 μM ATP
T2 construct: Msh2(1-934), Gene ID NP_000242.1; Msh6(1-1360), Gene ID NP_001393725.1
Protocol: as §2
ADP Glo assay with MutSα (2.1): The ADP Glo assay version 2.1 with the enzyme human MutSα (Msh2(1-934), Gene ID NP_000242.1, Msh6(1-1360), Gene ID NP_001393725.1) was based on the same principle and protocol steps as the MutSβ assay. A 22 bp biotin-labeled DNA containing a GT-mismatch (purchased from Curia Global, TOP 5′-[…]-3′; BOT 3′-AGTAGCTAGGC - - - CGAAGTCTACC-5′-Biotin) was used for binding to MutSα. For this assay, concentrations of enzyme and ATP were optimized to 15 nM MutSα/DNA and 30 μM ATP.

[5] = P33 SPA counter assay (absence of enzyme); settings: interference with detection system
Protocol: P33 SPA counter assay: This assay was used in the absence of enzyme to determine whether the test compound interferes with the detection system. Otherwise, the same protocol and assay buffer as in the main SPA assay were applied (25 mM HEPES pH=7.5, 150 mM KCl, 2 mM MgCl2, 2 mM GSH, 0.01% Tween-20) and instead of enzyme addition, assay buffer was added. Hydrolysis of substrate (γ-[^33P]-ATP, 0.1 nM; Hartmann Analytic, FF-301; and cold ATP, 10 μM) to a similar level as under enzymatic conditions was achieved by incubation at 50° C. for 4 days. Decay of [^33P] with a half-life of 25.4 days was corrected by increasing the concentration of the labelled nucleotide with the appropriate factor; all steps with radioactive ATP were conducted behind appropriate shielding. After addition of pre-treated ATP substrate (10 μL) to the compounds and addition of buffer (10 μL, instead of enzyme), 20 μL of a 1:2 mix of ammonium molybdate (20 mg/mL Ammonium molybdate in 2.4M HCl) and SPA beads (ProteinA SPA beads from Perkin Elmer Cat #RPNQ0019 at 7.5 mg/mL+1% azide) was added per well and incubated at RT for 2 min. Then, 40 μL of 7 M CsCl and 0.1 M citrate was added per well and incubated for 1 h at room temperature before measuring on the MicroBeta (top read mode, 1 min per well). For full plate processing, all reagents were transferred with a pipettor (Selma, CyBio) apart from the final reagent (CsCl+citrate) which was added with a dispenser (MultiFlo, BioTek). Data analysis during assay development was done with Prism GraphPad, and IC50 fitting for whole compound plates was done with the in-house software Aplus.

human MutSbeta [6] = target: T1, human MutSbeta; test: ADP Glo assay 2.2; type: biochemical; settings: as 2.1 but buffer with 2 mM GSH
Protocol: as §2
ADP Glo assay 2.2: A similar protocol was used as in the ADP Glo Assay 2.1 above, except the following assay buffer was used: 25 mM HEPES pH=7.5, 150 mM KCl, 5 mM MgCl2, 2 mM GSH, 0.1% Pluronic F-127, 0.2% Ovalbumin. It is contemplated the solubility of the compounds and/or varying test occasions and/or assay conditions may account for variability of assay results.

[7] = Table 5A, enzyme first added to compounds, then ATP
[8] = Table 5B, assay repeated under similar conditions

T1 sequence (P43246 whole entry): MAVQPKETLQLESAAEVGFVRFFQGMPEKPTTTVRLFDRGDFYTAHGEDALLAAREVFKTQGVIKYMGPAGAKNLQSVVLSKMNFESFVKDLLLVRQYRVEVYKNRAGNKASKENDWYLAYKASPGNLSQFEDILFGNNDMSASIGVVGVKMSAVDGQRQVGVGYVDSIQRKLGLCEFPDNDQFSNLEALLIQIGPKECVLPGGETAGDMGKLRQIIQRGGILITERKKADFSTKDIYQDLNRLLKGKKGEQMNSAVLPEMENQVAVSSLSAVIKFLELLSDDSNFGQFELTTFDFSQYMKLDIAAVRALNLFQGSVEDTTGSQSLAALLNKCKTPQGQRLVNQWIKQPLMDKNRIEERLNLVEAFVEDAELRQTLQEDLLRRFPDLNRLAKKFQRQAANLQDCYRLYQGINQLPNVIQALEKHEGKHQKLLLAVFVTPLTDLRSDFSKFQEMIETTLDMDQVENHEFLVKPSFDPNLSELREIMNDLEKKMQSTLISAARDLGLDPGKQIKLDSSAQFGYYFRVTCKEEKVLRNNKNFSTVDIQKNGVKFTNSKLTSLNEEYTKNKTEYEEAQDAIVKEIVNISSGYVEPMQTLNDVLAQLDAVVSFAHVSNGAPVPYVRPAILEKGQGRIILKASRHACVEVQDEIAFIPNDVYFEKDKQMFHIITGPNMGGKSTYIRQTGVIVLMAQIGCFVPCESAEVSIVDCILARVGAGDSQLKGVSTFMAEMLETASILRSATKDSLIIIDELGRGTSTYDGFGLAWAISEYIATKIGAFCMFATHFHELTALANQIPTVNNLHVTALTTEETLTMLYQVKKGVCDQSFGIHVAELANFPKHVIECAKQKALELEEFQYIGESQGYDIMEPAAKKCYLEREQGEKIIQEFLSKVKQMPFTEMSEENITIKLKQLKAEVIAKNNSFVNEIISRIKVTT
T1 sequence (P20585 whole entry): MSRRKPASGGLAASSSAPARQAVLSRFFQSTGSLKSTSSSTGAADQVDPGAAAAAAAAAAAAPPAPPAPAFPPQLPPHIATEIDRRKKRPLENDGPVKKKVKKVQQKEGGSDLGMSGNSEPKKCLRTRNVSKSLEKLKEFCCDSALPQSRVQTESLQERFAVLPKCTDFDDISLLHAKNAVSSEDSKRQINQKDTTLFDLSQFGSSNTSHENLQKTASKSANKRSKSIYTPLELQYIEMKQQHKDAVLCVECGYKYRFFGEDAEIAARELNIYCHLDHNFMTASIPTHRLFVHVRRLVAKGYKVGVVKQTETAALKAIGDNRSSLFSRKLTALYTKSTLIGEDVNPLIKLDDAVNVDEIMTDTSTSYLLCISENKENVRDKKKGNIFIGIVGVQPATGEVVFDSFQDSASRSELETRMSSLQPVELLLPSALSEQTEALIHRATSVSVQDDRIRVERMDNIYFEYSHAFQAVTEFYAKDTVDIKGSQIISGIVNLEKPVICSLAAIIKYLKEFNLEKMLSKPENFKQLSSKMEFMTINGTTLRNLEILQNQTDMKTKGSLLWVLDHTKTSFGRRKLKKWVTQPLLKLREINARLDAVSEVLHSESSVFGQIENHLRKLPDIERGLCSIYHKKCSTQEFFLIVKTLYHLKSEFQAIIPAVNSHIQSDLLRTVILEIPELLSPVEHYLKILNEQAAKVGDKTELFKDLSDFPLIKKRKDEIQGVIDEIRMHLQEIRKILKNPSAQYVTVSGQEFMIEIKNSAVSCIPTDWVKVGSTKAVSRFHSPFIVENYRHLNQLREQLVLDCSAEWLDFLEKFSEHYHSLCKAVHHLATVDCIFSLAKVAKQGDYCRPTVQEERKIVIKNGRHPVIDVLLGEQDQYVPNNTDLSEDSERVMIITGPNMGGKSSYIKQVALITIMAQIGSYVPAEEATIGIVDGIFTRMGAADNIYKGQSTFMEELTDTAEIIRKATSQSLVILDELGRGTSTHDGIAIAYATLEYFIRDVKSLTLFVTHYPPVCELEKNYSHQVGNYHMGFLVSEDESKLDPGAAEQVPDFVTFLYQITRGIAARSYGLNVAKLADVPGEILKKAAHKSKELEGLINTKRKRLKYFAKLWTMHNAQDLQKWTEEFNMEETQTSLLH
T2 sequence (P43246 whole entry): as the sequence (P43246 whole entry) above
T2 sequence (P52701 whole entry): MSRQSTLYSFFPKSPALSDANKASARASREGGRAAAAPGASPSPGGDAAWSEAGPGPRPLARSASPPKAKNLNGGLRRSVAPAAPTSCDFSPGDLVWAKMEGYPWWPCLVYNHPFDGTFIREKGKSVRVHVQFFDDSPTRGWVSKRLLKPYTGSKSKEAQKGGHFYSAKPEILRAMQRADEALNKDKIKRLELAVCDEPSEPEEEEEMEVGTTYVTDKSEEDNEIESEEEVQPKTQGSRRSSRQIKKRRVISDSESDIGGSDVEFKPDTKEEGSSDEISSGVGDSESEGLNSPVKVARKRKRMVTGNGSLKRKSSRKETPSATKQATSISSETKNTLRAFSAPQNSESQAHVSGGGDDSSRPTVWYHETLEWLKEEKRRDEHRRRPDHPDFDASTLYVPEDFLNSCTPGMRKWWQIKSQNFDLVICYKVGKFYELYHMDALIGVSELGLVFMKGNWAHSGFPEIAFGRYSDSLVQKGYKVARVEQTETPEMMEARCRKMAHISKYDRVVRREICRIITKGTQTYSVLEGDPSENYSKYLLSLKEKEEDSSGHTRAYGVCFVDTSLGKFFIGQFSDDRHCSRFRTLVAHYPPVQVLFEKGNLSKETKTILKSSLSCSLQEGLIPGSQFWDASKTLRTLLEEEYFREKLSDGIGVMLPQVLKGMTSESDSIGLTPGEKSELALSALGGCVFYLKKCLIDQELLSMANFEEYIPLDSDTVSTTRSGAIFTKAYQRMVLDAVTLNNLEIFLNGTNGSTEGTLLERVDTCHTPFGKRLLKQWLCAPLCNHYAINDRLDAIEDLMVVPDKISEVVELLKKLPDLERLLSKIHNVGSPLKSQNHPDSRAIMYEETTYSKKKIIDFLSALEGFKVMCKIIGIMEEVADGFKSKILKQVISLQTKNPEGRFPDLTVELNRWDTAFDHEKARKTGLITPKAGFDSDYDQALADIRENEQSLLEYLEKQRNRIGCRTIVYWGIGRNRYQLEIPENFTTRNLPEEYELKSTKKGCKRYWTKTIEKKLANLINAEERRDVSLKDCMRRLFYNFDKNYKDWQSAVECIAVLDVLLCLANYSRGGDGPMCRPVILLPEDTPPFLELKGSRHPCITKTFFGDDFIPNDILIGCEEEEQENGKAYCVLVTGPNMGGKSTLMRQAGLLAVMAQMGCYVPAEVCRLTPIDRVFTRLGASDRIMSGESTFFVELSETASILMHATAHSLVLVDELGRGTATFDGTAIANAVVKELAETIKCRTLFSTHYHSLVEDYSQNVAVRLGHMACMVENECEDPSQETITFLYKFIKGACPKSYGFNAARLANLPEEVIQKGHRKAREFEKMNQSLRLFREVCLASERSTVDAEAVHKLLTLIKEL

IC50 (human MutSbeta [1]) [µM]	IC50 (human MutSbeta [2]; [7]) [µM]	IC50 (human MutSbeta [3]) [µM]	IC50 (human MutSbeta [4]) [µM]	IC50 (human MutSα) [µM]	IC50 [5] [µM]	IC50 (human MutSbeta [2]; [8]) [µM]	IC50 (human MutSbeta [6]) [µM]	SMILES
20.8	24.5	32.6	42.5	42.3				CCN1CCN(c2nc(Nc3ccc(F)c(C)c3)c3nccnc3n2)CC1 [Compound 3, 2-(4-ethylpiperazin-1-yl)-N-(4-fluoro-3-methyl-phenyl)pteridin-4-amine]
31	44.8	148	63.4	> 200	> 200			CN1CCN(c2nc(NCc3ccccc3)c3nccnc3n2)CC1 [Compound 5, N-benzyl-2-(4-methylpiperazin-1-yl)pteridin-4-amine]
26.2	41.5	47.1	82.1		> 200			Cc1cccc(Nc2nc(N3CCN(C)CC3)nc3nccnc23)c1 [Compound 6, 2-(4-methylpiperazin-1-yl)-N-(m-tolyl)pteridin-4-amine]
122	> 200	> 200	> 200	42.7	> 200			CCN1CCN(c2nc(Nc3ccc(F)c(F)c3)c3nccnc3n2)CC1 [Compound 16, N-(3,4-difluorophenyl)-2-(4-ethylpiperazin-1-yl)pteridin-4-amine]
12.9	43.4	140	109	26.9	> 200			Cc1ccc(Nc2nc(N3CCN(C)CC3)nc3nccnc23)cc1Cl [Compound 20, N-(3-chloro-4-methyl-phenyl)-2-(4-methylpiperazin-1-yl)pteridin-4-amine]
	43	16				61	34	COc1cccc(Nc2nc(N3CCN(C)CC3)nc3nccnc23)c1 [Compound 40]
		28				50	50	Cc1cc(Nc2nc(N3CCN(C)CC3)nc3nccnc23)ccc1C(N)=O [Compound 41]
		≥ 200				108	119	CN1CCN(c2nc(NCc3cccc(S(C)(=O)=O)c3)c3nccnc3n2)CC1 [Compound 42]
	38	55				84	76	Cc1ccc(Nc2nc(N3CCN(C)CC3)nc3nccnc23)cc1C(N)=O [Compound 45]
	104	38				120	53	CC(=O)Nc1cccc(CNc2nc(N3CCN(C)CC3)nc3nccnc23)c1 [Compound 46]
